In publication PMC8105715, “Modeling of full-length Piezo1 suggests importance of the proximal N-terminus for dome structure” (Biophysical Journal, 2021) one finds IC50 data, which are given here for one compound.

The assay has as its target T1, human Piezo1 (Homo sapiens, UniProt Q92508).
T1 construct: stably expressed in HEK 293 TREx cells, tetracycline-inducible (P1 HEK TREx); homotrimer
The assay can be described thus: fura-2 intracellular Ca2+ plate-reader assay, inhibition of Yoda1-evoked response. The format is cell-based. The note with it: unreliable (estimated; limited solubility); 5 uM Yoda1; cells pretreated 30 min at 37 C with cholesterol-MbetaCD complex; nominal bath concentration; site not shown, may act through membrane; pH 7.4.

As a reminder, the IC50 is the midpoint of a concentration-inhibition curve.

T1 sequence (Q92508 whole entry): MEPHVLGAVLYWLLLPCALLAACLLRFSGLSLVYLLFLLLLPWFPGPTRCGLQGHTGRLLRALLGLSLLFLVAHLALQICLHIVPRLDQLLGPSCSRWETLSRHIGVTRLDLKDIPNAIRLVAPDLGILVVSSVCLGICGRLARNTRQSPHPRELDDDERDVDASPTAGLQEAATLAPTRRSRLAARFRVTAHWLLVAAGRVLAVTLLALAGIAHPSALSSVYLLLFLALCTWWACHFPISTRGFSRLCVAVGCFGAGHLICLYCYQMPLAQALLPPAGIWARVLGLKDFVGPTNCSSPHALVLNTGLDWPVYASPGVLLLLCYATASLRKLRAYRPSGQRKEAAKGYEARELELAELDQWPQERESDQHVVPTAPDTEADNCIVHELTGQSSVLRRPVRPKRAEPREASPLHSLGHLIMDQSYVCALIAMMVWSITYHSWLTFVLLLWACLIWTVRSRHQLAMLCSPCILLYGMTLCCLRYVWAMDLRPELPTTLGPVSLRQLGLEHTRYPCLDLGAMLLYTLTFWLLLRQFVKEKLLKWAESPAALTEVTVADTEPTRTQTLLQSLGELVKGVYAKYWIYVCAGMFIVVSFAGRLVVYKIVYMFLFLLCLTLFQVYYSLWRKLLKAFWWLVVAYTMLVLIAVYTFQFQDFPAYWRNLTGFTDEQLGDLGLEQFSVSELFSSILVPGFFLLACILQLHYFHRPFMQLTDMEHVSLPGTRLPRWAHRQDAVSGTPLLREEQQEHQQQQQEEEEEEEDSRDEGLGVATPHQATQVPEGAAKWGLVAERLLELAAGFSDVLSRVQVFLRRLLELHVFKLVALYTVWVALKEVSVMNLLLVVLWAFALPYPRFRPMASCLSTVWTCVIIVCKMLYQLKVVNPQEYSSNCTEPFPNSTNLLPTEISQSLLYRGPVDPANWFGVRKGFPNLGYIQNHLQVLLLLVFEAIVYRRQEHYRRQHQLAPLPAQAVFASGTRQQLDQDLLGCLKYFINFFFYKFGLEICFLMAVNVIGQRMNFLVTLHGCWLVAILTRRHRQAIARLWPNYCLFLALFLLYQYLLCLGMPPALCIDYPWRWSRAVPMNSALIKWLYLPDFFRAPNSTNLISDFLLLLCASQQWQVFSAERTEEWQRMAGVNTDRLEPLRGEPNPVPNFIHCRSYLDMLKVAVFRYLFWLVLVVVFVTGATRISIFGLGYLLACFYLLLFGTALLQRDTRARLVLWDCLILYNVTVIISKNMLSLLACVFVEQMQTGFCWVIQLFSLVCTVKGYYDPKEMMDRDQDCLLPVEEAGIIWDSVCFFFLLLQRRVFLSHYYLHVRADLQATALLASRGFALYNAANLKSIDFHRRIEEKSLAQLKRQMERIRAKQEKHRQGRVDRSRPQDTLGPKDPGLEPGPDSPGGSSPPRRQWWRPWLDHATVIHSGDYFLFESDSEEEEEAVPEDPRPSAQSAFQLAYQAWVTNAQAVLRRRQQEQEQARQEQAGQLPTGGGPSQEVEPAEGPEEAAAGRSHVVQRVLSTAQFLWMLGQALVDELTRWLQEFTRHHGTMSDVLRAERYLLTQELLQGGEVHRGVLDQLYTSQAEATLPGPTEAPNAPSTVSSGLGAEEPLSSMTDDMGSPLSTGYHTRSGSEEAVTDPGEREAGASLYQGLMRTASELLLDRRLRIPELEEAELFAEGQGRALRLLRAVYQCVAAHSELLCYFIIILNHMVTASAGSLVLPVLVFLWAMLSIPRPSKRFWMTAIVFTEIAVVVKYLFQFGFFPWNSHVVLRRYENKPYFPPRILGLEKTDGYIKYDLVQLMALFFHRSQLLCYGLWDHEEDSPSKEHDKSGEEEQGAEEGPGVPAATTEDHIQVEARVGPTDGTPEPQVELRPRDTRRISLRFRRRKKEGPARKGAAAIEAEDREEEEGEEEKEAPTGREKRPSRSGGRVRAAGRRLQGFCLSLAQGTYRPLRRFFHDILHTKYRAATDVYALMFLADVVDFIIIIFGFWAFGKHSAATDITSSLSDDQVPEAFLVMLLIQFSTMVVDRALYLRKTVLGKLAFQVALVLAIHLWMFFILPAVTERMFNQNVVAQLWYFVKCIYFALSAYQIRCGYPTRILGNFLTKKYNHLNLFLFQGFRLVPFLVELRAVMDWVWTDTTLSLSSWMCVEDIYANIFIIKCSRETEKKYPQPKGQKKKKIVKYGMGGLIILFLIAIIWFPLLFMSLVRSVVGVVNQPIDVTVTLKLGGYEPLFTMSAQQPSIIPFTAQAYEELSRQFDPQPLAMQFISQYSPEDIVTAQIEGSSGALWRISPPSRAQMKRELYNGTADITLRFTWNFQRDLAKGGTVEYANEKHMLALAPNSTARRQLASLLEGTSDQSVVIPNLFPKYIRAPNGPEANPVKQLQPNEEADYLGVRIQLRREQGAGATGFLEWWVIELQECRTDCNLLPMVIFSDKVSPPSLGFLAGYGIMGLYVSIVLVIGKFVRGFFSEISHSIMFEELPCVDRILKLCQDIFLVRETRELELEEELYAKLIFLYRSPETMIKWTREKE

Consider `CC(C)CCC[C@@H](C)[C@H]1CC[C@H]2[C@@H]3CC=C4C[C@@H](O)CC[C@]4(C)[C@H]3CC[C@]12C` [cholesterol], for which the half-maximal inhibitory concentration (IC50) is 150 µM.
